# Test results taken from US20190076434A1, “METHODS OF TREATING PERIPHERAL VASCULAR DISEASES, INCLUDING SYSTEMIC SCLEROSIS VASCULOPATHY” (UNIVERSITY OF UTAH RESEARCH FOUNDATION, priority 2016, published 2019).
# Assays:
# patients with SSc [1] = test system: patients with SSc
# patients with SSc [2] = experiment: Example 2: brachial artery flow-mediated dilation (FMD), double-blind randomized crossover, BH4 vs placebo; format: in vivo, human
# From the text: Methods: Subjects. Eleven subjects with SSc (3 men and 8 women) were recruited from the University of Utah SSc clinic to participate in the current study. All subjects had either a diagnosis of SSc as accepted by the American College of Rheumatology or early SSc as described by Leroy and […]. All subjects gave their written informed consent before participation. Protocol approval and written informed consent were obtained, according to the University of Utah and Salt Lake City Veterans Affairs Medical Center (VAMC) Institutional Review Board, in accordance with the principles outlined in the Declaration of Helsinki. All data collection took place in the Utah Vascular Research Laboratory at the Salt Lake City VAMC Geriatric Research, Education, and Clinical Center. Experimental Design. […] Subjects consumed a standardized breakfast and were administered oral BH4 (10 mg/kg) or placebo five hours prior arrival at the laboratory. Measurements were taken at the same time of day to eliminate any diurnal effects and after having abstained from food (not including the standardized breakfast), alcohol, caffeine, cardiovascular-acting medications, and exercise for ≥12 hours. […] Heart rate was monitored from a standard 3-lead ECG. […] FMD was quantified as the maximal change in BA diameter after cuff release. NMD was quantified as the maximal change in BA diameter after sublingual nitroglycerin supplementation. […] Shear rate was calculated according to the equation: shear rate (s-1)=(Vmean·8)/vessel diameter. Blood flow was calculated as per the equation: blood flow (mL·min)=(blood velocity×π)×(vessel diameter/2)2×(60). Cumulative shear rate cumulative area under the curve at the time of peak BA vasodilation was integrated with the trapezoidal rule and calculated as per the following equation: τ([…]]). Forearm vascular conductance was calculated according to the equation: […]. Forearm vascular resistance was calculated according to the equation: […]. […] Paired, one-tailed t-tests were used to identify significant changes in measured variables between placebo and BH4 conditions. […]
# patients with SSc [3] = experiment: Example 2: seated brachial artery blood pressure and mean arterial pressure, BH4 vs placebo; format: in vivo, human; settings: five hours after oral BH4 10 mg/kg
# Experimental: Experimental Design. A controlled, randomized, double-blind, crossover experimental design with two conditions, BH4 and placebo, was used, with a washout period of ≥5 days between conditions. Subjects consumed a standardized breakfast and were administered oral BH4 (10 mg/kg) or placebo five hours prior arrival at the laboratory. Measurements were taken at the same time of day to eliminate any diurnal effects and after having abstained from food (not including the standardized breakfast), alcohol, caffeine, cardiovascular-acting medications, and exercise for ≥12 hours. In premenopausal women, measurements were performed during the early follicular phase of the menstrual cycle.
# Blood Pressure. Seated BA blood pressure measurements were made with a semi-automated BP device (Tango+, SunTech, Morrisville, N.C.) in triplicate after 5 min in the upright seated position with the arm at heart level and under quiet, comfortable, ambient (˜22° C.) laboratory conditions. Mean arterial pressure (MAP) was calculated using the equation: ⅓ systolic blood pressure+⅔ diastolic blood pressure.
# Statistics. Statistics were performed using SPSS software (IBM, Chicago, Ill.). Paired, one-tailed t-tests were used to identify significant changes in measured variables between placebo and BH4 conditions. Statistical significance was set at P<0.05 for all analyses. Unless indicated otherwise, data are presented as Means±SEM.
# [4] = one SSc subject, BH4 vs placebo, data not shown
# [5] = 11 SSc patients, five hours after oral BH4 10 mg/kg, P<0.05
smiles,measurement,setting,value
"C[C@H](O)[C@H](O)[C@H]1CNc2nc(N)[nH]c(=O)c2N1 [BH4, tetrahydrobiopterin]",blood pressure,"patients with SSc [1]; human, in vivo",125/77
same,"FMD, increase compared to placebo","patients with SSc [1]; one SSc subject, BH4 vs placebo, FIG. 7A",73%
same,"peak hyperemia, increase compared to placebo","patients with SSc [1]; one SSc subject, BH4 vs placebo, FIG. 7B",63%
same,"area under the curve for hyperemia, increase compared to placebo","patients with SSc [1]; one SSc subject, BH4 vs placebo, FIG. 7C",~160%
same,"resting blood flow in the forearm, increase compared to placebo",patients with SSc [1]; [4],~20%
same,"resting blood flow in the leg, increase compared to placebo",patients with SSc [1]; [4],34%
same,"absolute FMD, improvement vs. placebo",patients with SSc [2]; [5],44%
same,"percentage FMD, improvement vs. placebo",patients with SSc [2]; [5],48%
same,FMD value in the BH4 condition,"patients with SSc [2]; second study, placebo FMD 3.2%, corresponds to highest tertile of FMD",5.6%
same,casual seated diastolic blood pressure,"patients with SSc [3]; Means ± SEM, P>0.05 vs placebo",68±2 mmHg
same,casual seated systolic blood pressure,"patients with SSc [3]; Means ± SEM, P>0.05 vs placebo",109±5 mmHg
same,"MAP, difference in the BH4 condition compared to placebo",patients with SSc [3]; P<0.05 vs placebo,~−2 mmHg
